{"source": "patent US7339052B2", "about": "“Phosphoramidite activator for oligonucleotide synthesis” (Honeywell International Inc., priority 2005, dated 2008)", "origin": "cited, not measured here"}
{"smiles": "c1ccc(CSc2nnn[nH]2)cc1", "note": "[BMT, 5-benzylmercaptotetrazole]", "values": [{"measurement": "maximum solubility in acetonitrile", "result": "about 0.33 M"}]}
